Consider 23 molecules from patent US5684003A, “5-HT4 receptor agonists” (Nisshin Flour Milling Co., Ltd., priority 1994, dated 1997).

The target of one test is T1, 5-HT3 receptor (Rattus norvegicus, UniProt P35563).
T1 construct: from tissue; host or cells: whole anesthetized rat (in vivo); endogenous receptor
T1 sequence (P35563 24-483): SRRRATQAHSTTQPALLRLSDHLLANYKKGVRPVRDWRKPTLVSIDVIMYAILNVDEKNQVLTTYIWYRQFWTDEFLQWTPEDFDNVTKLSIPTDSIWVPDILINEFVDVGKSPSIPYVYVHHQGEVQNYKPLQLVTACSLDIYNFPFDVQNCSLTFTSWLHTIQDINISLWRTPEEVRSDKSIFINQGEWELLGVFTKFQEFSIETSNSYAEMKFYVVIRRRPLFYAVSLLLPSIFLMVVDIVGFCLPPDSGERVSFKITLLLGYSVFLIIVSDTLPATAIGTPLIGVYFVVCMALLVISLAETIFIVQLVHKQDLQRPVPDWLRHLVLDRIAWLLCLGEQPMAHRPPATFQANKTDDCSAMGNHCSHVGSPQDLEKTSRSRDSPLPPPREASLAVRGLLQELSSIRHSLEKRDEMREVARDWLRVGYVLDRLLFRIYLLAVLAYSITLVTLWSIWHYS
Description: 5-HT3 receptor antagonist activity: inhibition of 2-Me-5-HT-induced reduction in heart rate in anesthetized rats. In kind it is in vivo. As to conditions: iv (jugular vein) 5 minutes before 2-Me-5-HT 0.1 mg/kg, read-out: IC50 (the source's name). On the procedure: For the purpose of studying a receptor selectivity of the present compounds, the 5-HT3 receptor antagonist activity was tested in the following manner. Rats were anesthetized with urethane and heart rate was recorded through femoral artery. The 5-HT3 selective agonist, 2-methyl-5-hydroxytryptamine (2-Me-5-HT) was administered at 0.1 mg/kg through carotid arteries and transient reduction in heart rate was recorded. The test. compounds were administered through jugular vein at 5 minutes before the administration of 2-Me-5-HT, inhibitory rate of reduction in heart rate by the administration of 2-Me-5-HT was calculated and IC50 value was calculated from the inhibitory rate.

A further test deals with 5-HT4 receptor (Cavia porcellus, UniProt O70528). Description: Increase in contraction height of electrically stimulated longitudinal muscle of isolated guinea pig ileum (LMMP). The format is cell-based. Also noted: key: +: indicates the increase in the contraction height; -: indicates no effect. From the text: Ileum was excised from guinea pigs to prepare longitudinal muscle samples with approximately 2 cm length. The sample was suspended in Krebs-Henseleit liquid bath supplied with a mixed gas (95% O2, 5% CO2) and subjected to electrical stimulation (1 msec, 0.1 Hz) to record contraction force isometrically. The test compounds were. dissolved in distilled water or DMSO and tested at a concentration of 10^-7 M (but 10^-6 M for Compound 11). The results are shown by the presence or absence of the increase in the contraction height by electrical stimulation before administration of the compound, wherein the symbol "+" indicates the increase in the contraction height, while "-" indicates no effect.
Whether or not the action of the above compounds is that via activation of 5-HT4 receptors was investigated using as 5-HT4 receptor antagonist, SDZ 205-557 (2-methoxy-4-amino-5-chlorobenzoic acid 2-(diethylamino)ethyl ester) described in Naunyn-Schmiedeberg's Arch Pharmacol (1992) 345:387-393. Thus, the investigation as to whether SDZ 205-557 can antagonize the increase in the contraction height of the above compounds using the longitudinal muscle preparation of the isolated guinea pig ileum can reveal that such increase in the contraction height is the action via activation of 5-HT4 receptors.

Another test has as its target T2, 5-HT4 receptors (Rattus norvegicus, UniProt Q62758).
T2 construct: from tissue; host or cells: rat oesophageal tunica muscularis mucosae
Description: Relaxation of carbachol-contracted rat oesophageal tunica muscularis mucosae. The format is cell-based. On the procedure:
The agonistic activity of oxazabicyclo derivatives and Mosapride on 5-HT4 receptors was determined by the procedure mentioned in Naunyn-Schmiedeberg's Arch Pharmacol (1991) 343:439-446.
The rat oesophageal tunica muscularis mucosae were suspended in organ both containing Krebs-Henseleit solution aerated with a mixed gas (95% O2, 5% CO2) and contracted with carbachol (1×10^-6 M). After the contraction was stabilized, the cumulative administration of the compounds was performed to determine the relaxation of the rat oesophagus pre-contracted with carbachol. The concentration (ED50) to cause 50% relaxation of the carbachol-induced contraction was measured. The result is expressed in terms of -log ED50 and shown in the following table in which higher numerical value indicates higher activity.

Counter-ions that a name gives are not always drawn. Like-named read-outs stand apart in the source and are kept apart here.

5-HT4 receptor, sequence (O70528 whole entry): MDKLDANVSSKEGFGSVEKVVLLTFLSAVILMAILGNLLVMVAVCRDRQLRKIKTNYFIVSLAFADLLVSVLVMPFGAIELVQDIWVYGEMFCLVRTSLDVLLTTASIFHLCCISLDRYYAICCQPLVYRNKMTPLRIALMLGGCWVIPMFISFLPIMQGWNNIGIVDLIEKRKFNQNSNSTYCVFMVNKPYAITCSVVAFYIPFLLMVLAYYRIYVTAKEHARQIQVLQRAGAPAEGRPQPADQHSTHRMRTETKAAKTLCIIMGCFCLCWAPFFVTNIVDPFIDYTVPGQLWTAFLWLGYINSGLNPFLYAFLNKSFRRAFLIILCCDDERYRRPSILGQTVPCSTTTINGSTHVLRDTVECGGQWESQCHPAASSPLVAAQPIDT
T2 sequence (Q62758 whole entry): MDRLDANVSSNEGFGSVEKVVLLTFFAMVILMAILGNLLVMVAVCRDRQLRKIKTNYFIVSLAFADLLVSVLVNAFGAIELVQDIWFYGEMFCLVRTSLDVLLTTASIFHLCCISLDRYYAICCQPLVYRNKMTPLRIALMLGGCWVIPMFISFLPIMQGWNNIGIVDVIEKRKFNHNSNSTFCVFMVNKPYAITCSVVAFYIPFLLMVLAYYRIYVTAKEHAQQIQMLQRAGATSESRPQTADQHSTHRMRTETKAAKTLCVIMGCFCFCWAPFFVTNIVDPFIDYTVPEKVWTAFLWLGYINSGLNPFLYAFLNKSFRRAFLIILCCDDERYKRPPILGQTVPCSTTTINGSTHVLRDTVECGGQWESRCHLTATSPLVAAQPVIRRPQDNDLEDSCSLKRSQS

Turning to `CCCCN1[C@@H]2COC[C@H]1C[C@@H](NC(=O)c1nn(C(C)CC)c3ccccc13)C2` (relative stereo) [Example 8], the ED50 at 5-HT3 receptor is 0.0297 mg/kg. Also, the “LMMP: presence or absence of the increase in the contraction height by electrical stimulation” value on 5-HT4 receptor (test concentration 10^-7 M) was “+”. The EC50 at 5-HT4 receptors was 631 nM.

On 5-HT4 receptors, `CCCCN1[C@@H]2COC[C@H]1C[C@@H](NC(=O)c1nn(C(C)CCC)c3ccccc13)C2` (relative stereo) [Example 9, N-[endo-9-(n-Butyl)-3-oxa-9-azabicyclo[3.3.1]non-7-yl]-1-(2-pentyl)-indazole-3-carboxamide] gave an EC50 of 776 nM.

Consider `CC#CC(C)n1nc(C(=O)N[C@H]2C[C@H]3COC[C@@H](C2)N3CCCC)c2ccccc21` (relative stereo) [Example 17, N-[endo-9-(n-Butyl)-3-oxa-9-azabicyclo[3.3.1]non-7-yl]-1-(1-methyl-2-butynyl)indazole-3-carboxamide], for which the EC50 on 5-HT4 receptors was 2240 nM.

`CN1[C@@H]2COC[C@H]1C[C@@H](NC(=O)c1nn(C)c3ccccc13)C2` [Comparative Example 1, N-[endo-9-Methyl-3-oxa-9-azabicyclo[3.3.1]non-7-yl]-1-methylindazole-3-carboxamide, reference compound]: the “LMMP: presence or absence of the increase in the contraction height by electrical stimulation” value on 5-HT4 receptor (test concentration 10^-7 M) was “-”. Also, the EC50 at 5-HT4 receptors (ED50 = concentration to cause 50% relaxation of contraction by carbachol (1×10^-6 M), cumulative administration, read-out: Activity (-log ED50) (converted)) is 115000 nM.

On to `CC(C)n1nc(C(=O)N[C@H]2C[C@H]3COC[C@@H](C2)N3C)c2ccccc21` [Comparative Example 2, N-[endo-9-Methyl-3-oxa-9-azabicyclo[3.3.1]non-7-yl]-1-isopropylindazole-3-carboxamide, reference compound], for which the ED50 on 5-HT3 receptor was 0.00032 mg/kg. Besides, the “LMMP: presence or absence of the increase in the contraction height by electrical stimulation” value on 5-HT4 receptor (test concentration 10^-7 M) is recorded as “+”. The EC50 at 5-HT4 receptors was 1510 nM.

The molecule `CCCCN1[C@@H]2COC[C@H]1C[C@@H](NC(=O)c1nn(CCC)c3ccccc13)C2` [Example 1, N-[endo-9-(n-Butyl)-3-oxa-9-azabicyclo[3.3.1]non-7-yl]-1-(n-propyl)indazole-3-carboxamide] gave an EC50 on 5-HT4 receptors of 3800 nM.

`CCCN1[C@@H]2COC[C@H]1C[C@@H](NC(=O)c1nn(C(C)C)c3ccccc13)C2` [Example 2, N-[endo-9-(n-Propyl)-3-oxa-9-azabicyclo[3.3.1]non-7-yl]-1-isopropyl-indazole-3-carboxamide]: the ED50 on 5-HT3 receptor turned out to be 0.0089 mg/kg. On 5-HT4 receptor (test concentration 10^-7 M), the “LMMP: presence or absence of the increase in the contraction height by electrical stimulation” value is “+”. The molecule also had an EC50 on 5-HT4 receptors of 2880 nM.

Molecule `CCCN1[C@@H]2COC[C@H]1C[C@@H](NC(=O)c1nn(C(CC)CC)c3ccccc13)C2` [Example 3, N-[endo-9-(n-Propyl)-3-oxa-9-azabicyclo[3.3.1]non-7-yl]-1-(3-pentyl)-indazole-3-carboxamide] showed an EC50 at 5-HT4 receptors of 1660 nM.

The molecule `CCCCN1[C@@H]2COC[C@H]1C[C@@H](NC(=O)c1nn(CC)c3ccccc13)C2` [Example 4, N-[endo-9-(n-Butyl)-3-oxa-9-azabicyclo[3.3.1]non-7-yl]-1-ethylindazole-3-carboxamide] had an EC50 at 5-HT4 receptors of 10200 nM.

For the molecule `CCCCN1[C@@H]2COC[C@H]1C[C@@H](NC(=O)c1nn(CCCC)c3ccccc13)C2` [Example 6, N-[endo-9-(n-Butyl)-3-oxa-9-azabicyclo[3.3.1]non-7-yl]-1-(n-butyl)-indazole-3-carboxamide], the EC50 at 5-HT4 receptors was 4680 nM.

Consider `CCCCN1[C@@H]2COC[C@H]1C[C@@H](NC(=O)c1nn(CC(C)C)c3ccccc13)C2` [Example 7, N-[endo-9-(n-Butyl)-3-oxa-9-azabicyclo[3.3.1]non-7-yl]-1-isobutyl-indazole-3-carboxamide], for which, on 5-HT4 receptors, the EC50 turned out to be 5250 nM.

On 5-HT4 receptors, `CCCCN1[C@@H]2COC[C@H]1C[C@@H](NC(=O)c1nn(C(CC)CC)c3ccccc13)C2` [Example 10, N-[endo-9-(n-Butyl)-3-oxa-9-azabicyclo[3.3.1.]non-7-yl]-1-(3-pentyl)indazole-3-carboxamide] had an EC50 of 851 nM.

`C=CCn1nc(C(=O)N[C@H]2C[C@H]3COC[C@@H](C2)N3CCCC)c2ccccc21` [Example 11, N-[endo-9-(n-Butyl)-3-oxa-9-azabicyclo[3.3.1]non-7-yl]-1-allyl-indazole-3-carboxamide]: the “LMMP: presence or absence of the increase in the contraction height by electrical stimulation” value at 5-HT4 receptor (test concentration 10^-6 M (Compound 11)) is recorded as “+”. At 5-HT4 receptors, this molecule had an EC50 of 3550 nM.

Take `CCCCN1[C@@H]2COC[C@H]1C[C@@H](NC(=O)c1nn(CC=C(C)C)c3ccccc13)C2` [Example 12, N-[endo-9-(n-Butyl)-3-oxa-9-azabicyclo[3.3.1]non-7-yl]-1-(3-methyl-2-butenyl)indazole-3-carboxamide]: the EC50 on 5-HT4 receptors was 6760 nM.

As for `CCCCN1[C@@H]2COC[C@H]1C[C@@H](NC(=O)c1nn(CC3CC3)c3ccccc13)C2` [Example 13, N-[endo-9-(n-Butyl)-3-oxa-9-azabicyclo[3.3.1]non-7-yl]-1-(cyclopropylmethyl)indazole-3-carboxamide], at 5-HT4 receptor (test concentration 10^-7 M), the “LMMP: presence or absence of the increase in the contraction height by electrical stimulation” value is recorded as “+”. At 5-HT4 receptors, the EC50 is 2090 nM.

As to `CCCCCN1[C@@H]2COC[C@H]1C[C@@H](NC(=O)c1nn(C(C)C)c3ccccc13)C2` [Example 14, N-[endo-9-(n-Pentyl)-3-oxa-9-azabicyclo[^3.3.1]non-7-yl]-1-isopropylindazole-3-carboxamide], at 5-HT3 receptor, the ED50 is 0.0281 mg/kg. On 5-HT4 receptor (test concentration 10^-7 M), the “LMMP: presence or absence of the increase in the contraction height by electrical stimulation” value is reported as “+”. At 5-HT4 receptors, this molecule gave an EC50 of 1480 nM.

Take `CCCCCN1[C@@H]2COC[C@H]1C[C@@H](NC(=O)c1nn(C(CC)CC)c3ccccc13)C2` [Example 15, N-[endo-9-(n-Pentyl)-3-oxa-9-azabicyclo[3.3.1]non-7-yl]-1-(3-pentyl)-indazole-3-carboxamide]: the EC50 on 5-HT4 receptors is 813 nM.

On to `CCCCN1[C@@H]2COC[C@H]1C[C@@H](NC(=O)c1nn(C3CCCC3)c3ccccc13)C2` [Example 16, N-[endo-9-(n-Butyl)-3-oxa-9-azabicyclo[3.3.1]non-7-yl]-1-cyclopentyl-indazole-3-carboxamide], for which, at 5-HT4 receptors, the EC50 was 7760 nM.

For `CCCCN1[C@@H]2COC[C@H]1C[C@@H](NC(=O)c1nn([C@@H](C)CC)c3ccccc13)C2` [Example 18, (S)-(+)-N-[endo-9-(n-Butyl)-3-oxa-9-azabicyclo[3.3.1]non-7-yl]-1-(sec-butyl)indazole-3-carboxamide], the ED50 on 5-HT3 receptor worked out at 0.0183 mg/kg. The same molecule showed an EC50 at 5-HT4 receptors of 437 nM.

Consider `CCCCN1[C@@H]2COC[C@H]1C[C@@H](NC(=O)c1nn([C@H](C)CC)c3ccccc13)C2` [Example 19, (R)-(-)-N-[endo-9-(n-Butyl)-3-oxa-9-azabicyclo[3.3.1]non-7-yl]-1-(sec-butyl)indazole-3-carboxamide], for which, at 5-HT4 receptors, the EC50 is 1050 nM.

On 5-HT4 receptors, `CCCCN1[C@@H]2COC[C@H]1C[C@@H](NC(=O)c1nn(C(C)C)c3ccc(O)cc13)C2` [Example 26, N-[endo-9-(n-Butyl)-3-oxa-9-azabicyclo[3.3.1]non-7-yl]-5-hydroxy-1-isopropylindazole-3-carboxamide (hydrochloride)] gave an EC50 of 10500 nM.

In the case of `CCCCN1[C@@H]2COC[C@H]1C[C@@H](NC(=O)c1nn(C(C)C)c3c(O)cccc13)C2` [Example 27, N-[endo-9-(n-Butyl)-3-oxa-9-azabicyclo[3.3.1]non-7-yl]-7-hydroxy-1-isopropylindazole-3-carboxamide (hydrochloride)], the EC50 on 5-HT4 receptors is 15800 nM.

On 5-HT4 receptors, `CC(C)n1nc(C(=O)N[C@H]2C[C@H]3COC[C@@H](C2)N3)c2ccccc21` [Example 28, N-[endo-3-Oxa-9-azabicyclo[3.3.1]non-7-yl]-1-isopropylindazole-3-carboxamide (hydrochloride)] had an EC50 of 468 nM.
